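Growth conditions: 96-well plates. Treatment: test compound, 48 hours, 5 concentrations. Analysis: linear interpolation between bracketing concentrations; unreached endpoints set to highest concentration. TGI: total growth inhibition.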
Assays:
Assay in all cases: NCI anticancer screen, dose series, 48 h
TK-10 renal = test system: TK-10 renal
EKVX NSCLC = test system: EKVX NSCLC
NCI-H460 lung = test system: NCI-H460 lung
HCC-2998 colon = test system: HCC-2998 colon
MCF7 breast = test system: MCF7 breast
MDA-MB-435 = test system: MDA-MB-435
PC-3 prostate = test system: PC-3 prostate
UACC-257 melanoma = test system: UACC-257 melanoma
CAKI-1 renal = test system: CAKI-1 renal
SNB-19 CNS = test system: SNB-19 CNS
MOLT-4 leukemia = test system: MOLT-4 leukemia
HCT-116 colon = test system: HCT-116 colon
RPMI-8226 leukemia = test system: RPMI-8226 leukemia
HT29 colon = test system: HT29 colon
HS 578T breast = test system: HS 578T breast
SK-MEL-2 melanoma = test system: SK-MEL-2 melanoma
NCI/ADR-RES ovarian = test system: NCI/ADR-RES ovarian
OVCAR-8 ovarian = test system: OVCAR-8 ovarian
NCI-H522 lung = test system: NCI-H522 lung
KM12 colon = test system: KM12 colon
LOX IMVI melanoma = test system: LOX IMVI melanoma
UO-31 renal = test system: UO-31 renal
MDA-MB-231 breast = test system: MDA-MB-231 breast
OVCAR-4 ovarian = test system: OVCAR-4 ovarian
OVCAR-3 ovarian = test system: OVCAR-3 ovarian
HCT-15 colon = test system: HCT-15 colon
OVCAR-5 ovarian = test system: OVCAR-5 ovarian
A549 NSCLC = test system: A549 NSCLC
UACC-62 melanoma = test system: UACC-62 melanoma
NCI-H226 lung = test system: NCI-H226 lung
BT-549 breast = test system: BT-549 breast
SN12C renal = test system: SN12C renal
NCI-H23 lung = test system: NCI-H23 lung
COLO 205 colon = test system: COLO 205 colon
CCRF-CEM leukemia = test system: CCRF-CEM leukemia
U251 CNS = test system: U251 CNS
RXF 393 renal = test system: RXF 393 renal
HOP-62 NSCLC = test system: HOP-62 NSCLC
M14 melanoma = test system: M14 melanoma
786-0 renal = test system: 786-0 renal
SF-539 CNS = test system: SF-539 CNS
ACHN renal = test system: ACHN renal
SF-295 CNS = test system: SF-295 CNS
SK-MEL-5 melanoma = test system: SK-MEL-5 melanoma
HOP-92 NSCLC = test system: HOP-92 NSCLC
SW-620 colon = test system: SW-620 colon
K-562 leukemia = test system: K-562 leukemia
T-47D breast = test system: T-47D breast
DU-145 prostate = test system: DU-145 prostate
SK-MEL-28 melanoma = test system: SK-MEL-28 melanoma
HL-60(TB) leukemia = test system: HL-60(TB) leukemia
IGROV1 ovarian = test system: IGROV1 ovarian
SK-OV-3 ovarian = test system: SK-OV-3 ovarian
SNB-75 CNS = test system: SNB-75 CNS
SF-268 CNS = test system: SF-268 CNS
MDA-N = test system: MDA-N
MALME-3M melanoma = test system: MALME-3M melanoma
A498 renal = test system: A498 renal
SR leukemia = test system: SR leukemia

SMILES: Cc1cc(C)nc(NS(=O)(=O)c2ccc(NN=c3c4ccccc4n(C)c4ccccc34)cc2)n1
- TGI (TK-10 renal): > 100 µM
- TGI (EKVX NSCLC): 97.7 µM
- TGI (NCI-H460 lung): > 100 µM
- TGI (HCC-2998 colon): 89.8 µM
- TGI (MCF7 breast): 55.7 µM
- TGI (MDA-MB-435): 69.1 µM
- TGI (PC-3 prostate): > 100 µM
- TGI (UACC-257 melanoma): > 100 µM
- TGI (CAKI-1 renal): > 100 µM
- TGI (SNB-19 CNS): > 100 µM
- TGI (MOLT-4 leukemia): 79.6 µM
- TGI (HCT-116 colon): > 100 µM
- TGI (RPMI-8226 leukemia): > 100 µM
- TGI (HT29 colon): > 100 µM
- TGI (HS 578T breast): > 100 µM
- TGI (SK-MEL-2 melanoma): 58.8 µM
- TGI (NCI/ADR-RES ovarian): > 100 µM
- TGI (OVCAR-8 ovarian): > 100 µM
- TGI (NCI-H522 lung): 61.5 µM
- TGI (KM12 colon): > 100 µM
- TGI (LOX IMVI melanoma): 96.7 µM
- TGI (UO-31 renal): 71.7 µM
- TGI (MDA-MB-231 breast): > 100 µM
- TGI (OVCAR-4 ovarian): 99.3 µM
- TGI (OVCAR-3 ovarian): > 100 µM
- TGI (HCT-15 colon): > 100 µM
- TGI (OVCAR-5 ovarian): > 100 µM
- TGI (A549 NSCLC): > 100 µM
- TGI (UACC-62 melanoma): > 100 µM
- TGI (NCI-H226 lung): > 100 µM
- TGI (BT-549 breast): > 100 µM
- TGI (SN12C renal): > 100 µM
- TGI (NCI-H23 lung): > 100 µM
- TGI (COLO 205 colon): > 100 µM
- TGI (CCRF-CEM leukemia): 77.6 µM
- TGI (U251 CNS): > 100 µM
- TGI (RXF 393 renal): 50.8 µM
- TGI (HOP-62 NSCLC): > 100 µM
- TGI (M14 melanoma): > 100 µM
- TGI (786-0 renal): > 100 µM
- TGI (SF-539 CNS): > 100 µM
- TGI (ACHN renal): 77.4 µM
- TGI (SF-295 CNS): > 100 µM
- TGI (SK-MEL-5 melanoma): 62.9 µM
- TGI (HOP-92 NSCLC): > 100 µM
- TGI (SW-620 colon): > 100 µM
- TGI (K-562 leukemia): 66.2 µM
- TGI (T-47D breast): 80.8 µM
- TGI (DU-145 prostate): > 100 µM
- TGI (SK-MEL-28 melanoma): 67.7 µM
- TGI (HL-60(TB) leukemia): > 100 µM
- TGI (IGROV1 ovarian): > 100 µM
- TGI (SK-OV-3 ovarian): > 100 µM
- TGI (SNB-75 CNS): 96.9 µM
- TGI (SF-268 CNS): > 100 µM
- TGI (MDA-N): 59.6 µM
- TGI (MALME-3M melanoma): 91.3 µM

SMILES: C=C1CC(Cn2ccc(=O)[nH]c2=O)(c2ccc(-c3ccccc3)cc2)OC1=O (configuration not stated)
- TGI (TK-10 renal): 2.32 µM
- TGI (EKVX NSCLC): 29.9 µM
- TGI (NCI-H460 lung): 28.4 µM
- TGI (HCC-2998 colon): 4.12 µM
- TGI (MCF7 breast): 2.67 µM
- TGI (MDA-MB-435): 6.12 µM
- TGI (PC-3 prostate): 7.52 µM
- TGI (UACC-257 melanoma): 3.88 µM
- TGI (CAKI-1 renal): 2.7 µM
- TGI (SNB-19 CNS): 34 µM
- TGI (MOLT-4 leukemia): 5.26 µM
- TGI (HCT-116 colon): 0.892 µM
- TGI (RPMI-8226 leukemia): 1.29 µM
- TGI (HT29 colon): 3.27 µM
- TGI (HS 578T breast): 22.9 µM
- TGI (SK-MEL-2 melanoma): 4.55 µM
- TGI (NCI/ADR-RES ovarian): 4.64 µM
- TGI (OVCAR-8 ovarian): 11.1 µM
- TGI (NCI-H522 lung): 2.39 µM
- TGI (KM12 colon): 12.9 µM
- TGI (LOX IMVI melanoma): 1.07 µM
- TGI (UO-31 renal): 16.5 µM
- TGI (MDA-MB-231 breast): 5.8 µM
- TGI (OVCAR-3 ovarian): 4.03 µM
- TGI (HCT-15 colon): 3.72 µM
- TGI (OVCAR-5 ovarian): 24.7 µM
- TGI (A549 NSCLC): 24.9 µM
- TGI (UACC-62 melanoma): 1.88 µM
- TGI (NCI-H226 lung): 13.6 µM
- TGI (BT-549 breast): 3.73 µM
- TGI (SN12C renal): 21.3 µM
- TGI (NCI-H23 lung): 8.4 µM
- TGI (COLO 205 colon): 0.338 µM
- TGI (CCRF-CEM leukemia): 1.2 µM
- TGI (U251 CNS): 25 µM
- TGI (HOP-62 NSCLC): 40.2 µM
- TGI (M14 melanoma): 3.58 µM
- TGI (786-0 renal): 1.67 µM
- TGI (A498 renal): 16.1 µM
- TGI (SF-539 CNS): 8.89 µM
- TGI (ACHN renal): 3.25 µM
- TGI (SF-295 CNS): 25.3 µM
- TGI (SK-MEL-5 melanoma): 2.39 µM
- TGI (HOP-92 NSCLC): 2.62 µM
- TGI (SW-620 colon): 0.941 µM
- TGI (K-562 leukemia): 1.53 µM
- TGI (T-47D breast): 6.45 µM
- TGI (DU-145 prostate): 2.88 µM
- TGI (SK-MEL-28 melanoma): 5.34 µM
- TGI (IGROV1 ovarian): 2.64 µM
- TGI (SK-OV-3 ovarian): 21.1 µM
- TGI (SNB-75 CNS): 26.7 µM
- TGI (SF-268 CNS): 46.3 µM
- TGI (MDA-N): 3.5 µM
- TGI (MALME-3M melanoma): 3.42 µM

SMILES: COc1cc(C2S/C(=C/c3ccccc3)C(=O)N2c2cc(Cl)ccc2Cl)cc(OC)c1OC (configuration not stated)
- TGI (TK-10 renal): > 100 µM
- TGI (EKVX NSCLC): > 100 µM
- TGI (NCI-H460 lung): > 100 µM
- TGI (HCC-2998 colon): > 100 µM
- TGI (MCF7 breast): > 100 µM
- TGI (MDA-MB-435): > 100 µM
- TGI (PC-3 prostate): > 100 µM
- TGI (UACC-257 melanoma): > 100 µM
- TGI (CAKI-1 renal): > 100 µM
- TGI (SNB-19 CNS): > 100 µM
- TGI (MOLT-4 leukemia): > 100 µM
- TGI (HCT-116 colon): 28.1 µM
- TGI (RPMI-8226 leukemia): > 100 µM
- TGI (HT29 colon): > 100 µM
- TGI (SK-MEL-2 melanoma): > 100 µM
- TGI (NCI/ADR-RES ovarian): > 100 µM
- TGI (OVCAR-8 ovarian): > 100 µM
- TGI (NCI-H522 lung): 50.4 µM
- TGI (KM12 colon): 38.8 µM
- TGI (LOX IMVI melanoma): 36.1 µM
- TGI (UO-31 renal): > 100 µM
- TGI (MDA-MB-231 breast): > 100 µM
- TGI (OVCAR-3 ovarian): > 100 µM
- TGI (HCT-15 colon): > 100 µM
- TGI (A549 NSCLC): > 100 µM
- TGI (UACC-62 melanoma): > 100 µM
- TGI (NCI-H226 lung): > 100 µM
- TGI (BT-549 breast): > 100 µM
- TGI (SN12C renal): > 100 µM
- TGI (NCI-H23 lung): > 100 µM
- TGI (COLO 205 colon): > 100 µM
- TGI (CCRF-CEM leukemia): > 100 µM
- TGI (U251 CNS): > 100 µM
- TGI (RXF 393 renal): > 100 µM
- TGI (HOP-62 NSCLC): > 100 µM
- TGI (SR leukemia): > 100 µM
- TGI (M14 melanoma): 62.4 µM
- TGI (786-0 renal): 41.3 µM
- TGI (A498 renal): > 100 µM
- TGI (SF-539 CNS): 42.9 µM
- TGI (ACHN renal): > 100 µM
- TGI (SF-295 CNS): > 100 µM
- TGI (SK-MEL-5 melanoma): > 100 µM
- TGI (HOP-92 NSCLC): > 100 µM
- TGI (SW-620 colon): > 100 µM
- TGI (K-562 leukemia): > 100 µM
- TGI (T-47D breast): > 100 µM
- TGI (DU-145 prostate): > 100 µM
- TGI (SK-MEL-28 melanoma): > 100 µM
- TGI (HL-60(TB) leukemia): > 100 µM
- TGI (IGROV1 ovarian): 68.3 µM
- TGI (SK-OV-3 ovarian): > 100 µM
- TGI (SF-268 CNS): 53.1 µM
- TGI (MDA-N): > 100 µM
- TGI (MALME-3M melanoma): > 100 µM

From PubChem BioAssay (NCI)
